{
  "source": "patent USRE39485E1",
  "about": "(Aesgen, Inc., priority 1993, dated 2007)",
  "key": {"[1]": {"test_system": "patients experiencing mucositis of the oropharynx following a course of chemotherapy", "assay": "Oral glutamine swish and swallow trial in patients with chemotherapy induced oral mucositis", "assay_type": "in vivo, human", "parameters": "key to Maximum Grade of Mucositis: 0: no mucositis; 1: painful mucositis not necessitating a change in oral intake; 2A: painful mucositis restricting intake to soft foods; 2B: painful mucositis restricting oral intake to liquids; 3: mucositis preventing oral intake", "description": "Patients experiencing mucositis of the oropharynx following a course of chemotherapy were offered the opportunity to enter this study if no other clinical parameters precluded receiving the same chemotherapy doses during the next course of treatment. […] Other carriers, flavor enhancers, gums, and suspending agents known in the art may be employed. The suspension was stored in a refrigerator during use for a maximum of 1 month. […] The severity of mucositis was graded as: 0, no mucositis; 1, painful mucositis not necessitating a change in oral intake; 2A, painful mucositis restricting intake to soft foods; 2B, painful mucositis restricting oral intake to liquids; and 3, mucositis preventing oral intake (CALGB criteria). Maximum grade of mucositis and total number of days of mucositis were compared by the paired t-test. All patients gave written informed consent, and the trial was approved by the Institutional Review Board of the University of Minnesota. Ten adults, 5 men and 5 women, were entered in the study. […] One patient with AIDS and Kaposi's sarcoma was treated with doxorubicin by constant iv infusion over 5 days with bolus DTIC and vincristine. One patient with breast cancer was treated with doxorubicin, cyclophosphamide, and 5-FU, iv bolus."}, "[2]": {"settings": "oral dose of 0.3 g/kg; cited from earlier work"}, "[3]": {"settings": "0.57 g/kg/day in parenteral nutrition solutions for 5 days; cited from earlier work"}, "[4]": {"test_system": "adults undergoing allogeneic bone marrow transplantation for hematologic malignancies", "settings": "cited from earlier work"}, "[5]": {"test_system": "rats treated with methotrexate", "settings": "glutamine supplementation of an elemental diet; cited from earlier work"}, "[6]": {"test_system": "rats given abdominal radiotherapy", "settings": "glutamine group vs glycine enriched group; cited from earlier work"}, "[7]": {"test_system": "animals given methotrexate", "settings": "administered after methotrexate; cited from earlier work"}, "[8]": {"settings": "parenteral glutamine supplementation vs none"}},
  "note": "“And” between values parts separate entries of the source, which are not always exact repeats. Equal entries are not always repeated.",
  "data": [
    {"smiles": "NC(=O)CC[C@H](N)C(=O)O", "note": "[glutamine, L-glutamine]", "values": [
      {"measurement": "Subjective Improvement of Mucositis", "setting": "[1]; Chemotherapy + Glutamine 2 gm/m^2 BID vs previous identical chemotherapy without glutamine, one line per patient (1-10)", "value": "Yes (9×) and No"},
      {"measurement": "Maximum Grade of Mucositis", "setting": "[1]; chemotherapy + glutamine, L-glutamine 2 g/m^2 swish and swallow twice daily, one line per patient (1-10), CALGB criteria", "value": "1 (7×) and 0 (3×)"},
      {"measurement": "toxicity of the glutamine", "setting": "[1]; oral glutamine 2 g/m^2 twice daily, ambulatory patients", "value": "absence of any detectable toxicity"},
      {"measurement": "patients in whom the maximum grade of mucositis remained the same (grade 1)", "setting": "[1]; with glutamine supplementation", "value": "2/10"},
      {"measurement": "patients in whom the total number of days of mucositis decreased", "setting": "[1]; with glutamine supplementation", "value": "9/10"},
      {"measurement": "median score of maximum grade of mucositis", "setting": "[1]; with glutamine supplementation (2 without), p=0.001", "value": 1},
      {"measurement": "total number of days of mucositis, mean (SEM)", "setting": "[1]; with glutamine supplementation (10.1±1.2 without), p=0.001", "value": "3.8 ± 1.0", "unit": "days"},
      {"measurement": "patients in whom the maximum grade of mucositis decreased", "setting": "[1]; with glutamine supplementation vs previous course, p=0.001", "value": "8/10"},
      {"measurement": "patients in whom glutamine allowed chemotherapy doses that would otherwise have had to be reduced due to mucositis", "setting": "[1]; with the addition of glutamine", "value": "8/10"},
      {"measurement": "patients who felt that the mucositis was less severe", "setting": "[1]; with the addition of glutamine", "value": "Nine of the 10"},
      {"measurement": "clinical toxicity or measurable toxic metabolites (ammonia or glutamate)", "setting": "[2]", "value": "no evidence of clinical toxicity or generation of measurable toxic metabolites"},
      {"measurement": "tolerability", "setting": "[3]", "value": "well tolerated"},
      {"measurement": "severity of oral mucositis (stomatitis)", "setting": "[4]; high dosage of intravenous glutamine vs no glutamine", "value": "no difference"},
      {"measurement": "episodes of clinical infections", "setting": "[4]; [8]", "value": "fewer episodes of clinical infections"},
      {"measurement": "median hospitalization", "setting": "[4]; [8]", "value": "shorter median hospitalization"},
      {"measurement": "nitrogen balance", "setting": "[4]; [8]", "value": "better nitrogen balance"},
      {"measurement": "incidence of bacteremia", "setting": "[5]", "value": "lower incidence of bacteremia"},
      {"measurement": "mortality", "setting": "[5]", "value": "less mortaility"},
      {"measurement": "mucosal weight of the jejunum and colon", "setting": "[5]", "value": "increased mucosal weight of the jejunum and colon"},
      {"measurement": "survival", "setting": "[5]", "value": "longer survival"},
      {"measurement": "weight loss", "setting": "[5]", "value": "less weight loss"},
      {"measurement": "mucosal structure", "setting": "[6]", "value": "more normal mucosal structure"},
      {"measurement": "survival rate", "setting": "[6]", "value": "higher survival rate"},
      {"measurement": "survival rate, enteral vs parenteral supplementation", "setting": "[7]", "value": "better survival rate"}
    ]}
  ]
}
